Assay [1] has as its target T1, cytoplasmic domain of the human CSF-1R (Homo sapiens, UniProt P07333).
T1 construct: Recombinant protein corresponding to the cytoplasmic domain of the human CSF-1R; purchased Invitrogen Corporation, Carlsbad, Calif; PV3249
T1 sequence (P07333 539-972 limits assumed): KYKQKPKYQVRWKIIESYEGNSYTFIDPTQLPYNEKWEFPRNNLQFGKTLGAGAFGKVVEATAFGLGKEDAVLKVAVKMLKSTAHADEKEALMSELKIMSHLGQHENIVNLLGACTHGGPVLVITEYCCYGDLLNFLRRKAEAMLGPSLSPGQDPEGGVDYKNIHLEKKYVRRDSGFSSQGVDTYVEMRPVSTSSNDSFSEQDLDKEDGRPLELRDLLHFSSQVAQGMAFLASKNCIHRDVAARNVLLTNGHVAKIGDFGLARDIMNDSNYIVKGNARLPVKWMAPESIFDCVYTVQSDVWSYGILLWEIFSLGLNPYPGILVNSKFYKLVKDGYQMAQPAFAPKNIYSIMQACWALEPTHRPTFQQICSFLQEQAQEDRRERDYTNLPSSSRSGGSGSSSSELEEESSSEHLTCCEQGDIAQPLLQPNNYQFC
The experiment in a line: In vitro kinase assay for colony stimulating factor-1 receptor (AlphaScreen). Type of assay: biochemical. The note with it: tested at about 1 μM, read-out: CSF-1R percent inhibition. In outline: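 4 nM enzyme, 1 μM ATP; buffer 50 mM Hepes pH 7.5, 5 mM MgCl2, 10 mM MnCl2, 1.0 mM DTT, 0.1% BSA, 0.01% Tween 80. Readout: AlphaScreen, PT66 acceptor/streptavidin donor, overnight.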
(In general: In Alpha technology, singlet oxygen from a donor bead excites a nearby acceptor bead.)

In another assay the target is T2, kinase domain of cKIT (Homo sapiens, UniProt P10721).
T2 construct: The kinase domain of cKIT was assayed in 50 mM Hepes; purchased Upstate 14-559
The experiment in a line: Inhibition of cKIT kinase signaling in an in vitro biochemical assay (alphascreen). Conditions: tested at about 1 μM, read-out: cKit percent inhibition.

For a further assay, the target named is T3, kinase domain of PDGFRβ (Homo sapiens, UniProt P09619).
T3 construct: The kinase domain of PDGFRβ was assayed in 50 mM Hepes; purchased Invitrogen P3082
The experiment in a line: Inhibition of PDGFRb kinase signaling in an in vitro biochemical assay (alphascreen). Conditions: tested at about 1 μM, read-out: PDGFRβ percent inhibition.

The test system of assay [2] is MNFS60 (murine AML cells). The experiment in a line: Cell viability assay in MCSF dependent MNFS60 cells (Cell Titer Glo). Type of assay: cell-based. Conditions: Mus musculus, tested at about 1 μM, read-out: M-NFS-60 CP percent inhibition. The protocol:
Cell viability was assessed by Cell Titer Glo, Promega. […] Test compounds were serially diluted (3 fold) in DMSO to 500× the final concentration. […] Final concentration of MCSF is 10 ng/ml. Cells were incubated for 72 hrs at 37° C., 5% CO2. After the incubation 100 μl Cell Titer Glo is added to each well to determine viable cells. The assay was performed according to the manufacturer's instruction (Promega Corporation, Madison, Wis. USA). Each experimental condition was performed in triplicate. Raw data was imported in Abase and EC50s calculated with XL-fit data analysis software.

SMILES strings stand for the structures. Read-outs that look alike come from different tables or passages of the source.

T2 sequence (P10721 589-937 limits assumed): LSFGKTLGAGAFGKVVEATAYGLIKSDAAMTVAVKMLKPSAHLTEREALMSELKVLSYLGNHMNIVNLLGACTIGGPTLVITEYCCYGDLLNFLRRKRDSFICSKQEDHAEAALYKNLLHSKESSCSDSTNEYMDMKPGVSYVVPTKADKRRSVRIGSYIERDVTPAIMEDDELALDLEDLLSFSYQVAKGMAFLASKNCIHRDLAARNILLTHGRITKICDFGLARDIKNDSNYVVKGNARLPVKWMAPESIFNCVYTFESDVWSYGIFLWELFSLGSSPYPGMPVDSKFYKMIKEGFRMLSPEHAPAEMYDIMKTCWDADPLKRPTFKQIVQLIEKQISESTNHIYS
T3 sequence (P09619 600-962 limits assumed): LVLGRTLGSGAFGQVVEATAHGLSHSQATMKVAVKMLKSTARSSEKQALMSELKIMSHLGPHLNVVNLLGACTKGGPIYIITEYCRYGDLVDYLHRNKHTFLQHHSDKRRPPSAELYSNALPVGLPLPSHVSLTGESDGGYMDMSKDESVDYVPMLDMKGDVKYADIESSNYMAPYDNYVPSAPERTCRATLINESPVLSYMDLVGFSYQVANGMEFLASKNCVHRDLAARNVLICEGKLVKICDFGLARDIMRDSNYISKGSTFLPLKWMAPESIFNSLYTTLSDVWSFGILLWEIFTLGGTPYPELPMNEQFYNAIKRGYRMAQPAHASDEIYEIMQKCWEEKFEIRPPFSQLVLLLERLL

With `CCOC(=O)C1(CNc2nc3ccc(Oc4ccnc(C(=O)NC)c4)cc3o2)CCCCC1` [Compound 75, 1-{[6-(2-Methylcarbamoyl-pyridin-4-yloxy)-benzooxazol-2-ylamino]-methyl}-cyclohexane-carboxylic acid ethyl ester], the inhibition (usually the relative decrease from the control value, in per cent) at 1 µM was 99% in assay [1], 7% on kinase domain of cKIT, 0% at kinase domain of PDGFRβ and 0% in assay [2] (MNFS60 cells).
Consider `CNC(=O)c1cc(Oc2ccc3nc(NCc4c(Cl)cccc4Cl)oc3c2)ccn1` [Compound 76, 4-[2-(2,6-Dichloro-benzylamino)-benzooxazol-6-yloxy]-pyridine-2-carboxylic acid methylamide], for which the inhibition at 1 µM in assay [1] was determined as 98%; at kinase domain of cKIT it was 9%; at kinase domain of PDGFRβ it was 0%; in assay [2] (MNFS60 cells), 0%.
For the compound `CNC(=O)c1cc(Oc2ccc3nc(NCc4cc(OC)ccc4OC)oc3c2)ccn1` [Compound 83, 4-[2-(2,5-Dimethoxy-benzyl-amino)-benzooxazol-6-yloxy]-pyridine-2-carboxylic acid methylamide], the inhibition at 1 µM was found to be 99% in assay [1], 12% on kinase domain of cKIT, 0% on kinase domain of PDGFRβ and 26% in assay [2] (MNFS60 cells).
`CNC(=O)c1cc(Oc2ccc3nc(NCc4c(OC)cc(OC)cc4OC)oc3c2)ccn1` [Compound 113, 4-[2-(2,4,6-Trimethoxy-benzylamino)-benzooxazol-6-yloxy]-pyridine-2-carboxylic acid methylamide]: the inhibition at 1 µM in assay [1] was 97%; at kinase domain of cKIT, 7%; on kinase domain of PDGFRβ it was 17%; in assay [2] (MNFS60 cells), 19%.
Taken in the same sequence, the figures for `CNC(=O)c1cc(Oc2ccc3nc(NCc4cc(Cl)ccc4OC)oc3c2)ccn1` [Compound 114, 4-[2-(5-Chloro-2-methoxy-benzylamino)-benzooxazol-6-yloxy]-pyridine-2-carboxylic acid methylamide] were 100%, 92%, 15% and 36%.
Taken in the same sequence, the figures for `CNC(=O)c1cc(Oc2ccc3nc(NCc4cc(F)ccc4OC)oc3c2)ccn1` [Compound 115, 4-[2-(5-Fluoro-2-methoxy-benzylamino)-benzooxazol-6-yloxy]-pyridine-2-carboxylic acid methylamide] were 99%, 88%, 18% and 21%.
With `CNC(=O)c1cc(Oc2ccc3nc(NCc4c(F)cccc4OC)oc3c2)ccn1` [Compound 116, 4-[2-(2-Fluoro-6-methoxy-benzylamino)-benzooxazol-6-yloxy]-pyridine-2-carboxylic acid methylamide], the inhibition at 1 µM in assay [1] is 100%; at kinase domain of cKIT, 100%; at kinase domain of PDGFRβ, 18%; in assay [2] (MNFS60 cells) it was 10%.
For the compound `CNC(=O)c1cc(Oc2ccc3nc(NCC4COc5ccccc5O4)oc3c2)ccn1` (stereo not drawn) [Compound 119, 4-{2-[(2,3-Dihydro-benzo-[1,4]dioxin-2-ylmethyl)-amino]-benzooxazol-6-yloxy}-pyridine-2-carboxylic acid methylamide], the inhibition at 1 µM in assay [1] is 99%; at kinase domain of cKIT it was 18%; on kinase domain of PDGFRβ it was 32%; in assay [2] (MNFS60 cells) it was 13%.
With `CNC(=O)c1cc(Oc2ccc3nc(NCc4c(Cl)cccc4OC)oc3c2)ccn1` [Compound 121, 4-[2-(2-Chloro-6-methoxy-benzylamino)-benzooxazol-6-yloxy]-pyridine-2-carboxylic acid methylamide], the inhibition at 1 µM in assay [1] is 100%; at kinase domain of cKIT it was 9%; at kinase domain of PDGFRβ it was 30%; in assay [2] (MNFS60 cells) it was 17%.
Turning to `CNC(=O)c1cc(Oc2ccc3nc(NCc4ccc5c(c4)OCCO5)oc3c2)ccn1` [Compound 122, 4-{2-[(2,3-Dihydro-benzo-[1,4]dioxin-6-ylmethyl)-amino]-benzooxazol-6-yloxy}-pyridine-2-carboxylic acid methylamide], the inhibition at 1 µM in assay [1] is 100%; on kinase domain of cKIT, 53%; on kinase domain of PDGFRβ it was 0%; in assay [2] (MNFS60 cells), 19%.
On to `CNC(=O)c1cc(Oc2ccc3nc(NCCc4cccc5c4OCCO5)oc3c2)ccn1` [Compound 123, 4-{2-[2-(2,3-Dihydro-benzo-[1,4]dioxin-5-yl)-ethylamino]-benzooxazol-6-yloxy}-pyridine-2-carboxylic acid methylamide], for which the inhibition at 1 µM came to 99% in assay [1], 15% on kinase domain of cKIT, 2% at kinase domain of PDGFRβ and 0% in assay [2] (MNFS60 cells).
In the case of `CNC(=O)c1cc(Oc2ccc3nc(NCC(O)COc4ccccc4)sc3c2)ccn1` (stereo not drawn) [Compound 124], the inhibition at 1 µM in assay [1] (compounds of Table 3) came to 99%; on kinase domain of cKIT (compounds of Table 3) it was 0%; on kinase domain of PDGFRβ (compounds of Table 3), 10%; in assay [2] (compounds of Table 3) it was 18%.
The corresponding values for `CNC(=O)c1cc(Oc2ccc3nc(NCCC(C)C)sc3c2)ccn1` [Compound 130] are 100%, 90%, 70% and 79%.
The corresponding values for `CNC(=O)c1cc(Oc2ccc3nc(NCc4ccccc4)sc3c2)ccn1` [Compound 138] are 100%, 100%, 37% and 105%.
`CNC(=O)c1cc(Oc2ccc3nc(NC4C[C@@H]5CC[C@H]4C5)sc3c2)ccn1` (stereo partly drawn) [Compound 140]: the inhibition at 1 µM was 100% in assay [1] (compounds of Table 3), 27% on kinase domain of cKIT (compounds of Table 3), 100% on kinase domain of PDGFRβ (compounds of Table 3) and 25% in assay [2] (compounds of Table 3).
As for `CNC(=O)c1cc(Oc2ccc3nc(NCC4CCOCC4)sc3c2)ccn1` [Compound 141, 4-{2-[(tetrahydro-pyran-4-ylmethyl)-amino]-benzothiazol-6-yloxy}-pyridine-2-carboxylic acid methylamide], the inhibition at 1 µM in assay [1] was 100%; at kinase domain of cKIT it was 1%; at kinase domain of PDGFRβ, 0%; in assay [2] (MNFS60 cells), 22%.
Regarding `CNC(=O)c1cc(Oc2ccc3nc(NCc4ccccc4N(C)C)sc3c2)ccn1` [Compound 144, 4-[2-(2-Dimethylamino-benzylamino)-benzothiazol-6-yloxy]-pyridine-2-carboxylic acid methylamide], the inhibition at 1 µM is 99% in assay [1], 100% on kinase domain of cKIT, 100% at kinase domain of PDGFRβ and 100% in assay [2] (MNFS60 cells).
Consider `CNC(=O)c1cc(Oc2ccc3nc(NCC4COc5ccccc5O4)sc3c2)ccn1` (stereo not drawn) [Compound 144], for which the inhibition at 1 µM came to 100% in assay [1] (compounds of Table 3), 38% at kinase domain of cKIT (compounds of Table 3), 12% at kinase domain of PDGFRβ (compounds of Table 3) and 41% in assay [2] (compounds of Table 3).
As to `CNC(=O)c1cc(Oc2ccc3nc(NCCc4cnccn4)sc3c2)ccn1` [Compound 148], the inhibition at 1 µM was 96% in assay [1] (compounds of Table 3), 23% on kinase domain of cKIT (compounds of Table 3), 2% on kinase domain of PDGFRβ (compounds of Table 3) and 1% in assay [2] (compounds of Table 3).
The corresponding values for `CNC(=O)c1cc(Oc2ccc3nc(N[C@H](C)C(C)C)sc3c2)ccn1` [Compound 149] are 100%, 29%, 21% and 48%.
Taken in the same sequence, the figures for `CNC(=O)c1cc(Oc2ccc3nc(N[C@@H](C)C(C)C)sc3c2)ccn1` [Compound 150] were 100%, 24%, 2% and 22%.

The values above are taken from patent publication US8173689B2 (Novartis AG, priority 2006, dated 2012).
